This note sets out measurements from EP0600092A1, “THIAZOLE DERIVATIVE” (OTSUKA PHARMACEUTICAL CO., LTD., priority 1992, dated 1993).

For the experiment, the system named is human neutrophilic leukocyctes. Put plainly: Activity for inhibiting the generation of O2- in human neutrophilic leukocytes (FMLP-stimulated, ferricytochrome C method). It is filed as cell-based. To be noted: Leukocyte, O₂⁻ generation stimulated with 3×10⁻⁷ M FMLP at 37°C, cytochalasin B 5 µg/ml, pre-incubated with test compound 20 minutes, 4 minutes reduction, absorbance 550 nm, read-out: IC₅₀. As for the experimental part: Activity for inhibiting the generation of O₂⁻ in human neutrophilic leukocyctes
Human neutrophilic leukocyctes were prepared in accordance with the method of M. Markert et al. [Methods in Enzymology, vol. 105; pp. 358-365 (1984)]. That is, a whole blood obtained from a healthy adult and treated by anticoagulation method was subjected to a dextranhypotonic treatment to obtain leukocyte cells. The leukocycte cells were then subjected to a density gradient ultracentrifugation by Ficoll-Paque to obtain a neutrophilic leukocyte fraction.
O₂⁻ generation was examined by the ferricytochrome C method in accordance with the mehtod of B.N. Cronstein et al. [Journal of Experimental Medicine, vol. 158, pp. 1160-1177 (1983)]. That is, […] of neutrophilic leukocytes were stimulated with 3×10⁻⁷ M of N-formyl-L-methionyl-L-leucyl-L-phenylalanine (FMLP) at 37°C in the presence of 1.3 mg/ml of ferricytochrome C and 5 µg/ml of cytochalasin B in a Hepes-buffered Hank's solution (pH 7.4); the amount of ferricytochrome C formed by 4 minutes of reduction was determined by measuring an absorbance at a wavelength of 550 nm using a spectrophotometer; an absorbance in the presence of 25.1 µg/ml of superoxide dismutase (SOD) was also measured; the difference of the two absorbances was taken as the amount of O₂⁻ generated. Each test compound was dissolved in dimethyl sulfoxide (DMSO); the solution was added to neutrophilic leukocytes before the addition of FMLP; then, the neutrophilic leukocytes were pre-incubated at 37°C for 20 minutes. By using the amount of O₂⁻ generated when the test compound solution was added and the amount of O₂⁻ generated when only the solvent (DMSO) was added, a ratio of inhibition (%) was calculated, and the activity for inhibiting O₂⁻ generation was expressed as 50% inhibitory concentration (IC₅₀).

In the case of `CCOc1ccc(-c2nc(-c3ccc(C(N)=S)cc3)cs2)cc1OCC` [Example 17], the IC50 stood at 0.066 µM.

On to `CCOc1ccc(-c2nc(-c3ccc(C(=N)NO)cc3)cs2)cc1OCC` [Example 18], for which the IC50 came to 0.013 µM.

As to `CCOc1ccc(-c2nc(-c3ccc(C(=N)SC)cc3)cs2)cc1OCC` [Example 19], the IC50 came out at 0.2 µM. In the case of `CCOc1ccc(-c2nc(-c3ccc(NC(N)=S)cc3)cs2)cc1OCC` [Example 20] it was 0.03 µM; in that of `CCOc1ccc(-c2nc(-c3cnccn3)cs2)cc1OCC` [Example 23], 0.072 µM; in that of `CCOc1ccc(-c2nc(-c3cccc(C(N)=S)n3)cs2)cc1OCC` [Example 24], 0.055 µM.

With `CCOc1ccc(-c2nc(-c3cccc(C(=N)SC)n3)cs2)cc1OCC` [Example 25], the IC50 amounted to 0.33 µM. Consider `CCOc1ccc(-c2nc(-c3cc(N4CCN(C)CC4)ccn3)cs2)cc1OCC` [Example 27], for which the IC50 is 0.75 µM.

On to `CCOc1ccc(-c2nc(-c3cccc(C(O)CN4CCN(C)CC4)n3)cs2)cc1OCC` (stereo not shown) [Example 28], for which the IC50 amounted to 0.45 µM. For the molecule `CCOc1ccc(-c2nc(-c3cccc(C(=N)NO)n3)cs2)cc1OCC` [Example 29], the IC50 amounted to 0.23 µM. In the case of `CCOc1ccc(-c2nc(-c3ccc(O)c(-c4nnn[nH]4)c3)cs2)cc1OCC` [Test compound 5, 2-(3,4-Diethoxyphenyl)-4-[3-(1,2,3,4-tetrazol-5-yl)-4-hydroxyphenyl]thiazole] it was 0.24 µM; in that of `COc1ccc(-c2nc(-c3ccc(O)c(C(=O)NO)c3)cs2)cc1OC` [Test compound 13, Disodium [2-(3,4-dimethoxyphenyl)-4-thiazolyl]salicylhydroxamate], 0.6 µM. Turning to `COc1ccc(-c2nc(-c3cccc(NC(=N)SC)c3)cs2)cc1OC` [Test compound 16, 1-{3-[2-(3,4-Dimethoxyphenyl)-4-thiazolyl]phenyl}-2-methylisothiourea hydroiodide], the IC50 amounted to 0.35 µM.
